This note sets out measurements from ChEMBL document CHEMBL1949611, “Functional characterization of rat glutaryl-CoA dehydrogenase and its comparison with straight-chain acyl-CoA dehydrogenase” (Bioorg Med Chem Lett, 2011).

The nature of assay [1]: (§1) Inhibition of rat glutaryl-co A dehydrogenase by spectrophotometry.
The species entered for assay [2] is Rattus norvegicus. Described as §1. To be noted: for inhibition: TDE = time-dependent effect.
The species named for assay [3] is Rattus norvegicus. As to the kind of experiment: Irreversible inhibition of rat glutaryl-co A dehydrogenase by dialysis method.
For assay [4], the species on record is Rattus norvegicus. As to the kind of experiment: Time-dependent inhibition of rat glutaryl-co A dehydrogenase after 160 mins by spectrophotometry.
Assay [5] is filed under the species Rattus norvegicus. Description: Irreversible inhibition of rat glutaryl-co A dehydrogenase by HPLC analysis.
Assay [6] is filed under the species Rattus norvegicus. As to the kind of experiment: Activity of rat glutaryl-co A dehydrogenase expressed in Escherichia coli BL21.
For assay [7], the species on record is Rattus norvegicus. Description: Ratio of Kcat to Km for rat glutaryl-co A dehydrogenase expressed in Escherichia coli BL21.
The species named for assay [8] is Rattus norvegicus. As to the kind of experiment: Time-dependent inhibition of rat glutaryl-co A dehydrogenase after 30 mins by spectrophotometry.
Assay [9] is filed under the species Rattus norvegicus. As to the kind of experiment: Activity of rat glutaryl-co A dehydrogenase E370A mutant expressed in Escherichia coli BL21.
Assay [10] is filed under the species Rattus norvegicus. Description: Activity of rat glutaryl-co A dehydrogenase E370Q mutant expressed in Escherichia coli BL21.

Activity calls are given as the source filed them. The rule behind the calls is not given here.

What is called Ki is a dissociation constant, usually derived from enzyme kinetics or from competition with a known ligand. By inhibition is commonly meant the drop in the measured response relative to a control, in per cent. Regarding `CCC/C=C/C#CC(=O)SCCNC(=O)CCNC(=O)C(O)C(C)(C)COP(=O)(O)OP(=O)(O)OC[C@H]1O[C@@H](n2cnc3c(N)ncnc32)[C@H](O)[C@@H]1OP(=O)(O)O` (stereo not given in full), affinity in [1] was put at a Ki of 43 µM. Further, the Kinact in the assay filed under Rattus norvegicus [2] is 0.024 min⁻¹. Also, the inhibition result in the assay filed under Rattus norvegicus [2] was “tde”; in the assay filed under Rattus norvegicus [4], 20%. For the same compound, the inhibition entry in the assay listed under Rattus norvegicus [3] and in the assay filed under Rattus norvegicus [5] was “Active” each time.
For orientation: Km means the substrate concentration at which the rate is half of its maximum. What is called Vmax is the top rate of the reaction or transport when substrate is in excess. Usually kcat stands for the number of substrate molecules converted per active site and unit of time at saturation. Consider `CCCCCC/C=C/CC(=O)SCCNC(=O)CCNC(=O)C(O)C(C)(C)COP(=O)(O)OP(=O)(O)OC[C@H]1O[C@@H](n2cnc3c(N)ncnc32)[C@H](O)[C@@H]1OP(=O)(O)O` (stereo not given in full), for which, in the assay filed under Rattus norvegicus [6], the Michaelis constant (Km) was determined as 74 µM, the Vmax worked out at 27 nmol/mg/min and the catalytic constant (kcat) is 0.02 s⁻¹. Besides, in the assay filed under Rattus norvegicus [7], the kcat/Km worked out at 2.7 ×10⁻⁴ /µM/s.
In the case of `CCCCCC/C=C\CC(=O)SCCNC(=O)CCNC(=O)C(O)C(C)(C)COP(=O)(O)OP(=O)(O)OC[C@H]1O[C@@H](n2cnc3c(N)ncnc32)[C@H](O)[C@@H]1OP(=O)(O)O` (stereo not given in full), in the assay filed under Rattus norvegicus [6], the Km is 88 µM, the Vmax was 62 nmol/mg/min and the turnover number (kcat) is 0.046 s⁻¹. In addition, the kcat/Km in the assay filed under Rattus norvegicus [7] was 5.2 ×10⁻⁴ /µM/s.
As to `CCCC(=O)SCCNC(=O)CCNC(=O)C(O)C(C)(C)COP(=O)(O)OP(=O)(O)OC[C@H]1O[C@@H](n2cnc3c(N)ncnc32)[C@H](O)[C@@H]1OP(=O)(O)O` (stereo not given in full), in the assay filed under Rattus norvegicus [6], the Km was 12 µM and the turnover number (kcat) came out at 2.7 s⁻¹. In the assay listed under Rattus norvegicus [7], the kcat/Km came out at 230000 M⁻¹ s⁻¹.
Consider `CCCCCCCC(=O)SCCNC(=O)CCNC(=O)C(O)C(C)(C)COP(=O)(O)OP(=O)(O)OC[C@H]1O[C@@H](n2cnc3c(N)ncnc32)[C@H](O)[C@@H]1OP(=O)(O)O` (stereo not given in full), for which, in the assay listed under Rattus norvegicus [6], the Km is 28 µM and the kcat was determined as 1.1 s⁻¹. Also, the kcat/Km (10'-2/microM/s) in the assay listed under Rattus norvegicus [7] is 3.9.
With `CCCCCCCCCC(=O)SCCNC(=O)CCNC(=O)C(O)C(C)(C)COP(=O)(O)OP(=O)(O)OC[C@H]1O[C@@H](n2cnc3c(N)ncnc32)[C@H](O)[C@@H]1OP(=O)(O)O` (stereo not given in full), in the assay filed under Rattus norvegicus [6], the Km was 54 µM and the kcat is 0.18 s⁻¹. Besides, the kcat/Km (10'-3/microM/s) in the assay filed under Rattus norvegicus [7] worked out at 3.3.
With `CCCC/C=C/CC(=O)SCCNC(=O)CCNC(=O)C(O)C(C)(C)COP(=O)(O)OP(=O)(O)OC[C@H]1O[C@@H](n2cnc3c(N)ncnc32)[C@H](O)[C@@H]1OP(=O)(O)O` (stereo not given in full), in the assay filed under Rattus norvegicus [6], the Michaelis constant (Km) stood at 58 µM, the Vmax is 56 nmol/mg/min and the kcat amounted to 0.041 s⁻¹. In the assay listed under Rattus norvegicus [7], the kcat/Km is 7.1 ×10⁻⁴ /µM/s.
With `CCCCCC(=O)SCCNC(=O)CCNC(=O)C(O)C(C)(C)COP(=O)(O)OP(=O)(O)OC[C@H]1O[C@@H](n2cnc3c(N)ncnc32)[C@H](O)[C@@H]1OP(=O)(O)O` (stereo not given in full), in the assay listed under Rattus norvegicus [6], the Km was determined as 20 µM and the turnover number (kcat) stood at 2.1 s⁻¹. Moreover, in the assay filed under Rattus norvegicus [7], the kcat/Km was determined as 110000 M⁻¹ s⁻¹.
On to `CC/C=C/CC(=O)SCCNC(=O)CCNC(=O)C(O)C(C)(C)COP(=O)(O)OP(=O)(O)OC[C@H]1O[C@@H](n2cnc3c(N)ncnc32)[C@H](O)[C@@H]1OP(=O)(O)O` (stereo not given in full), for which, in the assay filed under Rattus norvegicus [6], the Km was found to be 51 µM, the Vmax worked out at 136 nmol/mg/min and the catalytic constant (kcat) is 0.099 s⁻¹. Moreover, the kcat/Km (10'-3/microM/s) in the assay listed under Rattus norvegicus [7] worked out at 1.9.
Regarding `CCCCCC#CC(=O)SCCNC(=O)CCNC(=O)C(O)C(C)(C)COP(=O)(O)OP(=O)(O)OC[C@H]1O[C@@H](n2cnc3c(N)ncnc32)[C@H](O)[C@@H]1OP(=O)(O)O` (stereo not given in full), the inhibition was 2% in the assay listed under Rattus norvegicus [8] and “tde” in the assay filed under Rattus norvegicus [2]. In addition, the affinity in assay [1], expressed as Ki, was 18 µM. The same compound gave a Kinact in the assay listed under Rattus norvegicus [2] of 0.2 min⁻¹. Besides, the inhibition result in the assay listed under Rattus norvegicus [3] and in the assay filed under Rattus norvegicus [5] was “Active” throughout.
Regarding `CC/C=C\CC(=O)SCCNC(=O)CCNC(=O)C(O)C(C)(C)COP(=O)(O)OP(=O)(O)OC[C@H]1O[C@@H](n2cnc3c(N)ncnc32)[C@H](O)[C@@H]1OP(=O)(O)O` (stereo not given in full), in the assay filed under Rattus norvegicus [6], the Michaelis constant (Km) stood at 49 µM, the Vmax was found to be 331 nmol/mg/min and the catalytic constant (kcat) turned out to be 0.24 s⁻¹. In the assay filed under Rattus norvegicus [7], the kcat/Km (10'-3/microM/s) worked out at 4.9. Besides, the turnover number (kcat) in the assay filed under Rattus norvegicus [9] was 0.00078 s⁻¹. For the same compound, the kcat in the assay listed under Rattus norvegicus [10] was 0.0021 s⁻¹.
For the compound `CCCC/C=C\CC(=O)SCCNC(=O)CCNC(=O)C(O)C(C)(C)COP(=O)(O)OP(=O)(O)OC[C@H]1O[C@@H](n2cnc3c(N)ncnc32)[C@H](O)[C@@H]1OP(=O)(O)O` (stereo not given in full), in the assay filed under Rattus norvegicus [6], the Michaelis-Menten constant (Km) was 66 µM, the maximum rate (Vmax) came to 113 nmol/mg/min and the turnover number (kcat) was determined as 0.083 s⁻¹. Also, the kcat/Km (10'-3/microM/s) in the assay filed under Rattus norvegicus [7] came to 1.3.
